Laboratory results from patent US20170226507A1, “COORDINATE CONTROL OF PATHOGENIC SIGNALING BY THE MIR-130/301 FAMILY IN PULMONARY HYPERTENSION AND FIBROPROLIFERATIVE DISEASES” (The Brigham and Women's Hospital, Inc., priority 2014, published 2017).
Entries after “also recorded” stand apart in the source; their conditions may differ. No end group written: not given here.

Columns and labels:
[1] = test system: liver-X nuclear hormone receptor (LXR); assay: Oral LXR agonist GW3965 in bleomycin-exposed mice (lung fibrosis); type: in vivo, mouse; conditions: 100 mg/kg/day in chow
Method: C57BL/6 mice (7-8 weeks old) were exposed to 0.035 U of bleomycin via oropharyngeal route. In the control group, saline (PBS) was administered via the same route. Mice were euthanized 14 days or 21 days after bleomycin administration. To determine the effects of the LXR agonist GW3965 (Sigma-Aldrich) and consequent APOE induction on lung fibrosis, as previously described^12, mice were exposed to bleomycin (as described above) and simultaneously assigned to control chow or chow supplemented with GW3965 (Research Diets, Inc.) at doses of 100 mg of drug per kilogram of mouse per day (based on average daily intake of […] of chow). After two weeks, harvest of lung tissue was performed for RNA/protein extraction or paraffin embedding. Messenger RNAs were reverse transcribed using the Multiscript RT kit (Life Technologies) to generate cDNA. cDNA was amplified via fluorescently labeled Taqman primer sets using an Applied Biosystems 7900HT Fast Real Time PCR device. […] A primary antibody against YAP1 (#4912; 1/200) was obtained from Cell Signaling. Primary antibodies against, LRP8 (ab115196; 1/100), α-SMA (1/400) were purchased from Abcam. Primary antibodies against PPARγ (sc-7273; 1/50) was purchased from Santa Cruz. Primary antibody against anti-shortmer ([…]-[…]; 1/1000) was provided by Regulus Therapeutics, as previously described^2. […] Pictures were obtained using an Olympus Bx51 microscope. For liver tissue and pulmonary tissue, 10 random 20× fields per animal were analyzed. Intensity of staining was quantified using ImageJ software (NIH). […] Degree of liver fibrosis was assessed in paraffin-embedded liver sections stained for α-SMA by […] score^65. All measurements were performed blinded to condition. […] The sections were then serially imaged using with an analyzer and polarizer oriented parallel and orthogonal to each other. Microscope conditions (lamp brightness, condenser opening, objective, zoom, exposure time, and gain parameters) were constant throughout the imaging of all samples. A minimal threshold was set on appropriate control sections for each experiment in which only the light passing through the orthogonally-oriented polarizers representing fibrous structures (i.e., excluding residual light from the black background) was included. The threshold was maintained for all images across all conditions within each experiment. The area of the transferred regions that was covered by the thresholded light was calculated and at least 10 sections per condition were averaged together (Image J software).

[2] = test system: Bleomycin-induced lung fibrosis in mice; assay: Bleomycin-induced lung fibrosis in mice; type: in vivo, mouse
[3] = test system: hypoxia-induced PH in mice; assay: Hypoxia-induced PH in mice: BAPN (prevention, rescue) or GW3965 (prevention); type: in vivo, mouse
From the text: Finally, we wanted to determine if ApoE activity and/or LOX-dependent vascular stiffening were essential for ECM stiffening and PH development by miR-130/301. To assess the importance of ApoE activity, we attempted to prevent PH in mice via treatment with daily dietary ingestion of the liver-X nuclear hormone receptor (LXR) agonist GW3965, a known pharmacologic inducer of ApoE (Pencheva et al., 2014), simultaneously with hypoxia (FIGS. 62A-62H and 68A-H). Alternatively, experiments were designed to either prevent or reverse hypoxia-induced PH in mice via serial treatment with a pharmacologic inhibitor of LOX (Levental et al., 2009), β-aminopropionitrile BAPN, administered either simultaneously with hypoxia exposure (“prevention”) or after disease development (“reversal”) (FIGS. 62A-62H and 68A-H). In all cases of GW3965 or BAPN treatment, collagen crosslinking (FIG. 62D, 62H, FIG. 68) was inhibited, leading to decreased indices of PH, as reflected by RVSP (FIG. 62A, 62E), right ventricular remodeling (RV/LV+S ratio; FIG. 62B, 62F) and pulmonary arteriolar muscularization (FIG. 62C, 62G). GW3965 or BAPN treatment also reversed Pparγ and Lrp8 down-regulation (FIGS. 68A-68H) as well as reduced YAP nuclear localization (FIG. 62D, 62H) and YAP activation, as reflected by decreased Ctgf (FIGS. 68A-68H). Thus, considering the convergent data regarding pharmacologic manipulation of miR-130/301, APOE, and LOX, we can conclude that the YAP-TAZ-miR-130/301 circuit and its downstream network of targets act as master regulators of ECM remodeling in PH and represent a new set of targets for tailored molecular therapy in this disease.
To determine the effects of the LXR agonist GW3965 (Sigma-Aldrich) and consequent APOE induction on PH development, as previously described (Pencheva et al., 2014), mice were exposed to normobaric hypoxia and simultaneously assigned to control chow or chow supplemented with GW3965 (Research Diets, Inc.) at doses of 100 mg of drug per kilogram of mouse per day (based on average daily intake of […] of chow).
Picrosirius Red stain was achieved through the use of 5 μm paraffin sections stained with 0.1% Picrosirius Red (Direct Red80, Sigma-Aldrich) and counterstained with Weigert's hematoxylin to reveal fibrillar collagen. The sections were then serially imaged using with an analyzer and polarizer oriented parallel and orthogonal to each other. Microscope conditions (lamp brightness, condenser opening, objective, zoom, exposure time, and gain parameters) were constant throughout the imaging of all samples. A minimal threshold was set on appropriate control sections for each experiment in which only the light passing through the orthogonally-oriented polarizers representing fibrous structures (i.e., excluding residual light from the black background) was included. The threshold was maintained for all images across all conditions within each experiment. The area of the transferred regions that was covered by the thresholded light was calculated and at least 10 sections/vessel per condition were averaged together (Image J software).
This protocol was adapted from a previously published protocol (Hu et al.). Mouse lung was weighed, minced, and incubated in 0.5 M acetic acid at 4° C. After overnight digestion, the acetic acid-soluble and insoluble fractions were isolated by centrifugation. The soluble fraction was stored at −80° C., while the insoluble fraction was digested by overnight incubation in 6M hydrochloric acid at 85° C. Concentrations of soluble and insoluble (gelatinous) collagen fractions were determined using a Sircol Soluble Collagen Assay Kit (Biocolor) with a colorimetric reaction (measured at 550 nm) and a provided collagen reference standard curve.

PASMCs = assay: Contraction assay of PASMCs in matrigel; type: cell-based, human; conditions: endothelin-1 for 4 days vs vehicle
Method: (§1) (FIG. 40A) A schematic diagram of co-culture experiments: conditioned media from transfected PAECs (miRNA, anti-miRNA, tiny-LNA or siRNA under normoxic or hypoxic conditions) were filtered and applied onto naïve PASMCs cultured in matrigel. At specific times, PASMCs or PASMC-matrigel cultures were arrested and analyzed for STAT3 activation (phosphorylation) or contraction, respectively.
(§2) 50000 PASMC were embedded in 100 ul of matrix gel as previous described (Gagiolli et al) and plated into well of a 96 well plate. After 1 h at 37° C., these matrices were overlaid with 100 ul of conditioned PAECs serum-free medium (transfected with siRNA, miRNA or anti-miRNA and supplemented with Ambriesentan 10 uM). Every 12 h, medium was changed and at day 4 the gels were photographed and the relative diameter of the well and the gel were measured using ImageJ. The percentage contraction was calculated using the formula 100*(well diameter−gel diamter)/well diameter. For the co-culture experiment, conditioned media from PAEC transfected as indicated were applied on PASMCs or Fibroblast previously starved (24 h). Cells were collected at different time and analyzed by western blotting.

STAT3 = STAT3 phosphorylation in PASMCs (conditioned media from PAECs or endothelin-1; immunoblot); type: cell-based, human; conditions: direct exposure to endothelin-1
Method: as §1, §2
Cells were lysed in RIPA buffer (Santa Cruz Biotechnology) and the protein concentration determined using a Bradford assay (Biorad). Protein lysate ([…]) were resolved by SDS-PAGE and transferred onto a PVDF membrane (Biorad). Membranes were blocked in 5% non-fat milk in TN buffer (50 mM Tris-HCl pH 7.4, 150 mM NaCl) and incubated in the presence of the primary and then secondary antibodies. After washing in TN buffer containing 0.1% Tween, immunoreactive bands were visualized with the ECL system (Amersham Biosciences). […] Primary antibodies for STAT3 (#9139) and P-STAT3 (Tyr-705; #9145) were purchased from Cell Signaling. Primary antibodies against actin (ab 3280), was obtained from Abcam. Appropriate secondary antibodies (anti-rabbit and anti-mouse) coupled to HRP were used (Santa Cruz Biotechnology).

O=C(O)Cc1cccc(OCCCN(Cc2cccc(C(F)(F)F)c2Cl)CC(c2ccccc2)c2ccccc2)c1 [GW3965]
Pparγ and Lrp8 down-regulation [1]: reversed | YAP activation, Ctgf expression [1]: decreased | YAP nuclear localization [1]: reduced | collagen crosslinking ([1]; two weeks): inhibited | indices of lung fibrosis, Ashcroft score ([1]; two weeks): decreased | Pparγ and Lrp8 (and Timp2) expression ([2]; IHC / in situ stain): blunted | Ctgf, collagen isoforms and Lox transcripts ([2]; RT-PCR): reduced | collagen deposition and cross-linking ([2]; Short-130 20 mg/kg i.p. or GW3965 100 mg/kg dietary): blunted | lung fibrosis (α-SMA, collagen staining, Ashcroft score) ([2]; Short-130 or GW3965 100 mg/kg dietary): ameliorated | Yap nuclear localization / YAP ([2]; in situ stain): blunted | perivascular collagen crosslinking ([3]; Picrosirius Red): inhibited; also recorded: decreased | Ctgf, collagen isoforms, and Lox in lung ([3]; RT-qPCR): blunted | whole lung collagen content and crosslinked collagen ([3]; Sircol assay): nearly normalized | arteriolar muscularization ([3]; hypoxic mice): decreased; also recorded: prevented | right ventricular hypertrophy (Fulton index, RV/LV+S) ([3]; hypoxic mice): decreased; also recorded: prevented | RVSP ([3]; hypoxic mice, BAPN prevention and rescue, GW3965 100 mg/kg/day in chow, 100 mg/kg/day): decreased; also recorded: prevented | hypoxia mediated decreases of Lrp8 and Pparγ ([3]; in situ staining): reversed; also recorded: prevented | hypoxia-mediated increases of α-SMA and YAP ([3]; in situ staining): reduced; also recorded: blunted

endothelin-1: recombinant human EDN1 applied to PASMCs at 1 nM (CSCSSLMDKECVYFCHLDIIW; ends and bridges not checked; cysteine pairing not given here; UniProt P05305 53-73, looked up)
matrigel contraction of PASMC culture (PASMCs): led to matrigel contraction | matrigel contraction of PASMC culture (PASMCs; listed as EDN1): increased | STAT3 phosphorylation in PASMCs (STAT3): time-dependent increase | STAT3 phosphorylation in PASMCs (STAT3; listed as EDN1): increased
